Entries after “also recorded” stand apart in the source; their conditions may differ.
Legend:
[1] = test system: 87 primary molecular targets including 13 enzyme and 74 binding assays; assay: Off-target pharmacology study (SafetyScreen87 assay); conditions: 100 μM AX-8
Text: In addition, an off-target pharmacology study (SafetyScreen87 assay by Eurofins Pharma Discovery Services) has been performed. This assay package consists of 87 primary molecular targets including 13 enzyme and 74 binding assays, representing potential safety issues.

[2] = test system: refractory chronic cough (RCC); assay: Clinical Trial 2: objective cough frequency (VitaloJAK 24-hour recording) in RCC patients; assay type: in vivo, human; set-up: Cough frequency, Ln Mean (SE), Treatment, 8 hours (GEE) / Cough frequency, Ln Mean (SE), Treatment, 4 hours (GEE) / Cough frequency, Ln Mean (SE), Treatment, 24 hours (GEE): unit not given here
Protocol: The primary objective of the study was to assess the effectiveness of AX-8 (the study drug) for the treatment of RCC and associated upper airway symptoms after one dose of treatment (an orally disintegrating tablet (ODT) having 5 mg AX-8, administered orally and dissolved on the tongue) in reducing awake cough frequency compared to baseline, for the purpose of planning a future randomized controlled trial. Subjects took a single orally disintegrating tablet (ODT) with 5 mg AX-8 in the morning on the first day of the treatment period (Day 1). This Investigational Medical Product (IMP) was let to dissolve on the tongue. […] Objective cough frequency was measured as 24-hour sound recordings using a custom-built digital recording device (VitaloJAK, Vitalograph, Ltd). VitaloJAK™ is a semi-automated 24-hour ambulatory cough monitoring system (Vitalograph; Buckinghamshire, England) operating in a manner which completely replicates routine practice. The 24-hour recordings are compressed using custom designed compression software, using an algorithm. The VitaloJAK™ is a reliable, robust and efficient tool for the objective measurement of cough frequency. Importantly it reduces 24-hour recordings by up to 98% whilst preserving close to 100% of recorded cough sounds. It is worn like a Holter monitor, with a single sensor affixed to the patient's chest wall. An optional second channel via a conventional microphone (worn, for example, on the patient's shirt) allows quality assurance with human intervention. The device itself is attached on the trousers, skirt, etc. The 24-hour cough frequency (coughs per hour) for a specified visit was calculated as: 24-hour cough frequency=(total number of cough events during the monitoring period (24-hour interval))/24. Awake cough frequency=(total number of cough events during the monitoring period (24-hour interval) while the subject was awake)/(total duration (in hours) during the monitoring period (24-hour interval) that the subject was awake). Percent change in awake cough frequency=[(Change from baseline in awake cough frequency×100)/(Baseline awake cough frequency)]. The proportion of participants with ≥30% of reduction from baseline in awake cough frequency is the number of participants with ≤−30% change in awake cough frequency divided by the total number of participants with available data. For awake and asleep cough frequencies, baseline and treatment data were compared using Wilcoxon signed rank test due to the skewed nature of the data. For 24 hour-, 8 hour-, and 4 hour-cough frequencies, baseline and treatment data were compared using General Estimating Equations (GEE) models. Prior to analysis, these cough count data were natural log (Ln) transformed in order to normalise the distribution of the data. As some individual hourly cough counts were zero, 0.1 was added to all values prior to transformation.

[3] = Phase 1 study in healthy volunteers: safety and tolerability; assay type: in vivo, human; conditions: single dose 5 mg ODT, 12 healthy subjects; no remarkable adverse events
[4] = test system: refractory chronic cough (RCC); assay: Clinical Trial 2: Global Rating of Change Scale (GRCS); assay type: in vivo, human
Text: The GRCS was used by subjects to assess their overall status for the specified periods (the 4-hour period following dose; and the 24-hour period following dose). It consisted of a […] scale ranging from ‘a very great deal better’ to ‘a very great deal worse’.

capsaicin-induced cough = assay: Capsaicin-induced cough in awake guinea pig; assay type: in vivo
Protocol: AX-8's antitussive effect was evaluated in a standardized guinea pig model of cough (see, e.g., Brozmanova et al., 2012; Dong et al., 2016). Guinea pigs were placed in a plethysmography chamber and exposed for 10 minutes to nebulized capsaicin solution (0.1 mM) to induce cough. The cough frequency was detected as a transient change in airflow in the chamber and the signal recorded via a pressure transducer and computer. Additionally, the audio-amplified count was also recorded electronically. Coughs were counted for the 10-minute exposure period. The experiment was visually monitored by the investigator. A 5 mg/mL AX-8 solution was prepared by dissolving AX-8 in absolute ethanol at 200 mg/mL and then diluting in a solution of 4 mg/mL of sweet potato powder in saline (i.e., vehicle). The baseline frequency of coughing in response to exposure to capsaicin mist was recorded for the control (vehicle only) and treated (AX-8) group of animals (n=10 animals per group). Seven days later, animals were anesthetized with diethyl ether and a small animal laryngoscope was used to place the tip of a micro sprayer syringe in the oral cavity. Vehicle or AX-8 was administered into the oropharyngeal region at 75 μL per animal (n=10 animals per group). […] Ten minutes after administration, the guinea pigs were exposed to the capsaicin mist and the number of coughs recorded.

[5] = single 5 mg AX-8 ODT, treatment vs baseline

With `CC(C)OC(=O)CNC(=O)[C@@H]1C[C@H](C)CC[C@H]1C(C)C` [AX-8, [((1R,2S,5R)-2-isopropyl-5-methyl-cyclohexanecarbonyl)-amino]-acetic acid isopropyl ester] the “responses in SafetyScreen87 off-target panel” value [1] was “No significant responses were observed”, the “subjects with ≥30% reduction in 24-hour cough frequency per hour” value ([2]; 4/12 subjects) was 33.3% and the “subjects with ≥30% reduction in awake cough frequency per hour” value ([2]; 4/12 subjects) was 33.3%. The “subjects with ≥30% reduction in 4-hour cough frequency per hour” value ([2]; 5/12 subjects) was 41.7%, the “subjects with ≥30% reduction in 8-hour cough frequency per hour” value ([2]; 7/12 subjects) was 58.3% and the “Treatment ratio, 24 hours (GEE)” value ([2]; 95% CI −0.53 to 0.20, p=0.368) was −0.166. The “reduction in cough frequency during sleep” value ([2]; from 7.1 to 3.7, may not be statistically significant) was 48%, the “reduction in cough frequency during waking hours” value ([2]; from 64.1 to 54.8) was 14.5% and the “Cough frequency, Ln Mean (SE), Treatment, 24 hours (GEE)” value ([2]; natural log transformed, 0.1 added, baseline 2.87 (0.19)) was 2.70 (0.33). For the same compound, the “Cough frequency, Ln Mean (SE), Treatment, 8 hours (GEE)” value ([2]; natural log transformed, 0.1 added, baseline 3.72 (0.22)) was 3.26 (0.39), the “Cough frequency, Ln Mean (SE), Treatment, 4 hours (GEE)” value ([2]; natural log transformed, 0.1 added, baseline 3.92 (0.19)) was 3.38 (0.39) and the “Treatment ratio (95% CI), 8 hours (GEE)” value ([2]; p=0.033) was −0.461 (−0.88 to −0.04). The “Treatment ratio (95% CI), 4 hours (GEE)” value ([2]; p=0.047) was −0.54 (−1.08 to −0.01), the “Cough frequency, Median, Treatment, Asleep” value ([2]; single 5 mg AX-8 ODT, n=12, baseline 7.1, p=0.272 Wilcoxon) was 3.7 (0.6-17.5) coughs/hour and the “Cough frequency, Median, Treatment, 24 hours” value ([2]; single 5 mg AX-8 ODT, n=12, baseline 48.1) was 44.3 coughs/hour. For the same compound, the “Cough frequency, Median, Treatment, Awake” value ([2]; single 5 mg AX-8 ODT, n=12, baseline 64.1, p=0.034 Wilcoxon) was 54.8 (16.4-79.5) coughs/hour, the “Cough frequency, Median, Treatment, 4 hours” value ([2]; single 5 mg AX-8 ODT, n=12, baseline 71.0) was 53.4 coughs/hour and the “Cough frequency, Median, Treatment, 8 hours” value ([2]; single 5 mg AX-8 ODT, n=12, baseline 75.5) was 45.4 coughs/hour. The “Cough frequency, Change of median, 4 hours” value [2, 5] was −24.8%, the “Cough frequency, Change of median, 8 hours” value [2, 5] was −39.9% and the “Cough frequency, Change of median, 24 hours” value [2, 5] was −7.90%. The “Cough frequency, Change of median, Asleep” value [2, 5] was −47.9%, the “Cough frequency, Change of median, Awake” value [2, 5] was −14.5% and the “Percentage Change, 8 hours (GEE)” value ([2]; treatment vs baseline, p=0.033) was −36.9%. The “Percentage Change, 4 hours (GEE)” value ([2]; treatment vs baseline, p=0.047) was −42.0%, the “Percentage Change, 24 hours (GEE)” value ([2]; treatment vs baseline, p=0.368) was −15.3% and the safety and tolerability [3] was “well tolerated”. The “GRCS Cough Frequency: patients rating about the same, n (%)” value ([4]; 4 hours after treatment, n=12) was 7 (58.3%), the “GRCS Cough Frequency: patients rating better, n (%)” value ([4]; 4 hours after treatment, n=12) was 4 (33.3%) and the “GRCS Cough Frequency: patients rating worse, n (%)” value ([4]; 4 hours after treatment, n=12) was 1 (8.3%). The “GRCS Cough Severity: patients rating about the same, n (%)” value ([4]; 4 hours after treatment, n=12) was 6 (50%), the “GRCS Cough Severity: patients rating better, n (%)” value ([4]; 4 hours after treatment, n=12) was 5 (41.7%) and the “GRCS Cough Severity: patients rating worse, n (%)” value ([4]; 4 hours after treatment, n=12) was 1 (8.3%). For the same compound, the “GRCS Cough Frequency: patients rating about the same, n (%)” value ([4]; 24 hours after treatment, n=11) was 6 (54.5%), the “GRCS Cough Frequency: patients rating better, n (%)” value ([4]; 24 hours after treatment, n=11) was 4 (36.4%) and the “GRCS Cough Frequency: patients rating worse, n (%)” value ([4]; 24 hours after treatment, n=11) was 1 (9.1%). For the same compound, the “GRCS Cough Severity: patients rating about the same, n (%)” value ([4]; 24 hours after treatment, n=11) was 6 (54.5%), the “GRCS Cough Severity: patients rating better, n (%)” value ([4]; 24 hours after treatment, n=11) was 4 (36.4%) and the “GRCS Cough Severity: patients rating worse, n (%)” value ([4]; 24 hours after treatment, n=11) was 1 (9.1%). For the same compound, the “capsaicin-induced coughs after treatment” value (capsaicin-induced cough; 0.375 mg/animal sprayed in oropharyngeal region 10 min before 0.1 mM capsaicin mist, Baseline (T) 25.0±2.0, n=10, p<0.01) was 9.0±2.0 coughs/10 min and the “effect on capsaicin-induced cough” value (capsaicin-induced cough; 5 mg/mL solution, 75 μL per animal) was “inhibited significantly capsaicin-induced cough; also recorded: inhibits cough induced by an irritant”.
